# Results taken from paper PMC8037182, “Solvothermal Synthesis of Multiple Dihydropyrimidinones at a Time as Inhibitors of Eg5” (Molecules, 2021).
# pIC50: −log10 of the molar value.
# What was measured:
# T24 cell line = test: Cytotoxicity MTS assay, T24 cell line; assay type: cell-based; conditions: for OD490 Mean / OD490 Well 1 / OD490 Well 2 / OD490 Well 3: T24 cell line;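 for OD490 Mean: blank control wells received 0.025% DMSO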;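 for OD490 Well 1: blank control wells received 0.025% DMSO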;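 for OD490 Well 2: blank control wells received 0.025% DMSO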;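 for OD490 Well 3: blank control wells received 0.025% DMSO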
# Summary of the method: (§1)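 Steps: plate 1000 cells per well; incubate 24 h; add compound (final 0.5 to 100 µM) or 0.025% DMSO blank for 24 h; add MTS reagent, hold 2 h at 37 °C in 5% CO2; read A490; fit percent viability against concentration by non-linear regression to obtain IC50.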
# L929 cell line = test: Cytotoxicity MTS assay, L929 cell line; assay type: cell-based; conditions: for OD490 values, Mean / OD490 values, Well 1 / OD490 values, Well 2 / OD490 values, Well 3: L929 cell line, first assay
# Summary of the method: as §1
smiles,measurement,setting,value
CCOC(=O)c1c(C2NC(=O)NC(C)=C2C(=O)Nc2ccccc2C)[nH]c(C(=O)OC)c1C (centres unmarked) [D2],pIC50,"T24 cell line; MTS assay, 24 h exposure",< 3.82
same,OD490 Mean,"T24 cell line; 0.5μM, first assay",1.8524
same,OD490 Well 1,"T24 cell line; 0.5μM, first assay",1.8720
same,OD490 Well 2,"T24 cell line; 0.5μM, first assay",1.7367
same,OD490 Well 3,"T24 cell line; 0.5μM, first assay",1.9486
same,OD490 Mean,"T24 cell line; 0.5μM, second assay",1.7337
same,OD490 Well 1,"T24 cell line; 0.5μM, second assay",1.7425
same,OD490 Well 2,"T24 cell line; 0.5μM, second assay",1.7320
same,OD490 Well 3,"T24 cell line; 0.5μM, second assay",1.7265
same,OD490 Mean,"T24 cell line; 1μM, first assay",1.8992
same,OD490 Well 1,"T24 cell line; 1μM, first assay",1.8529
same,OD490 Well 2,"T24 cell line; 1μM, first assay",2.1141
same,OD490 Well 3,"T24 cell line; 1μM, first assay",1.7306
same,OD490 Mean,"T24 cell line; 1μM, second assay",1.7313
same,OD490 Well 1,"T24 cell line; 1μM, second assay",1.6985
same,OD490 Well 2,"T24 cell line; 1μM, second assay",1.7321
same,OD490 Well 3,"T24 cell line; 1μM, second assay",1.7632
same,OD490 Mean,"T24 cell line; 10μM, first assay",1.7422
same,OD490 Well 1,"T24 cell line; 10μM, first assay",1.5585
same,OD490 Well 2,"T24 cell line; 10μM, first assay",1.7096
same,OD490 Well 3,"T24 cell line; 10μM, first assay",1.9584
same,OD490 Mean,"T24 cell line; 10μM, second assay",1.7005
same,OD490 Well 1,"T24 cell line; 10μM, second assay",1.6985
same,OD490 Well 2,"T24 cell line; 10μM, second assay",1.7032
same,OD490 Well 3,"T24 cell line; 10μM, second assay",1.6999
same,OD490 Mean,"T24 cell line; 25μM, first assay",1.5770
same,OD490 Well 1,"T24 cell line; 25μM, first assay",1.7779
same,OD490 Well 2,"T24 cell line; 25μM, first assay",1.7471
same,OD490 Well 3,"T24 cell line; 25μM, first assay",1.2060
same,OD490 Mean,"T24 cell line; 25μM, second assay",1.7524
same,OD490 Well 1,"T24 cell line; 25μM, second assay",1.7747
same,OD490 Well 2,"T24 cell line; 25μM, second assay",1.7842
same,OD490 Well 3,"T24 cell line; 25μM, second assay",1.6982
same,OD490 Mean,"T24 cell line; 50μM, first assay",1.5326
same,OD490 Well 1,"T24 cell line; 50μM, first assay",1.7713
same,OD490 Well 2,"T24 cell line; 50μM, first assay",1.4256
same,OD490 Well 3,"T24 cell line; 50μM, first assay",1.4009
same,OD490 Mean,"T24 cell line; 50μM, second assay",1.6946
same,OD490 Well 1,"T24 cell line; 50μM, second assay",1.6524
same,OD490 Well 2,"T24 cell line; 50μM, second assay",1.6895
same,OD490 Well 3,"T24 cell line; 50μM, second assay",1.7420
same,OD490 Mean,"T24 cell line; 100μM, first assay",1.5388
same,OD490 Well 1,"T24 cell line; 100μM, first assay",1.4456
same,OD490 Well 2,"T24 cell line; 100μM, first assay",1.6062
same,OD490 Well 3,"T24 cell line; 100μM, first assay",1.5646
same,OD490 Mean,"T24 cell line; 100μM, second assay",1.4712
same,OD490 Well 1,"T24 cell line; 100μM, second assay",1.4274
same,OD490 Well 2,"T24 cell line; 100μM, second assay",1.5020
same,OD490 Well 3,"T24 cell line; 100μM, second assay",1.4842
same,"OD490 values, Mean",L929 cell line; 0.5μM,1.3610
same,"OD490 values, Well 1",L929 cell line; 0.5μM,1.3640
same,"OD490 values, Well 2",L929 cell line; 0.5μM,1.3358
same,"OD490 values, Well 3",L929 cell line; 0.5μM,1.3832
same,"OD490 values, Mean",L929 cell line; 1μM,1.4199
same,"OD490 values, Well 1",L929 cell line; 1μM,1.4170
same,"OD490 values, Well 2",L929 cell line; 1μM,1.4018
same,"OD490 values, Well 3",L929 cell line; 1μM,1.4410
same,"OD490 values, Mean",L929 cell line; 10μM,1.4901
same,"OD490 values, Well 1",L929 cell line; 10μM,1.4578
same,"OD490 values, Well 2",L929 cell line; 10μM,1.4940
same,"OD490 values, Well 3",L929 cell line; 10μM,1.5185
same,"OD490 values, Mean",L929 cell line; 25μM,1.5070
same,"OD490 values, Well 1",L929 cell line; 25μM,1.5039
same,"OD490 values, Well 2",L929 cell line; 25μM,1.5321
same,"OD490 values, Well 3",L929 cell line; 25μM,1.4850
same,"OD490 values, Mean",L929 cell line; 50μM,1.4864
same,"OD490 values, Well 1",L929 cell line; 50μM,1.5650
same,"OD490 values, Well 2",L929 cell line; 50μM,1.4275
same,"OD490 values, Well 3",L929 cell line; 50μM,1.4667
same,"OD490 values, Mean",L929 cell line; 100μM,1.2316
same,"OD490 values, Well 1",L929 cell line; 100μM,1.2364
same,"OD490 values, Well 2",L929 cell line; 100μM,1.1967
same,"OD490 values, Well 3",L929 cell line; 100μM,1.2618
same,pIC50,"L929 cell line; MTS assay, 24 h exposure, ordinary fibroblast, not cancer cells",< 3.82
